This note sets out measurements from article PMC12884772, “Macrophagic Sclerostin Loop2‐ApoER2 Interaction Required by Sclerostin for Cardiovascular Protective Action” (Advanced Science, 2025).

For one assay, the system named is SOST^ki.ApoE^−/− mice. In words: Aortic aneurysm, atherosclerosis and inflammatory responses in SOST^ki.ApoE^−/− mice with AngII infusion. Format: in vivo, mouse. To be noted: 10 mg/kg/day subcutaneous, four weeks, versus veh and Rseq‐Pep groups, n = 12. Here is the method:
(§1) Aortic aneurysm (AA), atherosclerosis, and inflammatory responses were induced in ApoE^−/− mice with AngII infusion as previously described.^[ [15] ^] In brief, osmotic minipumps (Model 1004, ALZET, Durect Corporation) were implanted into the subcutaneous space along the dorsal midline under anaesthesia on the right flank via an incision in the scapular region to deliver 1000 ng/kg/min of AngII (A9525, Sigma‐Aldrich) or vehicle in 3‐month‐old mice for four weeks.^[ [68] ^]
For AA evaluation, the aortas were perfused via the left ventricle with ice‐cold EDTA buffer (1 mM) and saline immediately after sacrifice. The aortas were then isolated from the fat and connective tissues under a Zeiss Stemi 305 stereomicroscope and then fixed in 4% PFA. The aorta with or without aneurysm formation was defined according to Daugherty's modified classification.^[ [45] ^] The incidence of AA was determined as follows: mouse number with aortic aneurysm/group mice*100%. The maximum ex vivo diameters of the aortic arch and suprarenal aorta were determined by ImageJ software. For atherosclerosis assessment, atherosclerotic plaque was quantified by measuring the surface area of the Oil Red O‐positive lesions on en face preparation of aortic arches.^[ [14] ^] Briefly, aortic arches were cut longitudinally and immersed in Oil Red O dye solution, followed by being rinsed with 75% ethanol. The ratio of atherosclerotic plaque area to total aortic arch area was quantified by colorimetric analysis using Image J software.^[ [13] ^]
(§2) The serum levels of sclerostin were detected using the sclerostin ELISA kits (R&D, DSST00; Cloud‐Clone, SEC864Mu) in triplicate following the manufacturer's instructions.^[ [14] ^] The serum levels of pro‐inflammatory cytokine and chemokine were measured using TNF‐α ELISA kit (Thermo Fisher BMS607‐3) and MCP‐1 ELISA kit (Thermo Fisher, BMS6005) in triplicate following manufacturer's instructions.^[ [15], [45] ^] The serum levels of anti‐inflammatory cytokine were measured using IL‐10 ELISA kit (Jonlnbio JL20242‐96T) in triplicate following manufacturer's instructions.^[ [15], [45] ^]

In assay [1] the test system is sclerostin loop2‐ApoER2 interaction. Nature of the assay: BLI blockade of ApoER2 - sclerostin loop2 binding by pretreatment with ApoER2‐Pep. To be noted: His‐ApoER2 on HIS1K biosensors, sclerostin loop2 pretreated with ApoER2‐Pep, Figure 6F, listed as ApoER2‐LA7. On the procedure: Biolayer interferometry (BLI) analysis was performed on the Biomolecular Interaction Analyzer (ForteBio, Octet RED96e). To determine the binding affinity between ApoER2 and sclerostin, the ApoER2 protein (R&D, 3520‐AR) was biotinylated using 10 mM EZ‐Link Sulfo‐NHS‐LC‐LC‐Biotin (Thermo Scientific, 21 343) in a molar ratio of 1:20 for 2 h at 4 °C. The Slide‐A‐Lyzer Dialysis Cassettes (Thermo Scientific, 66 382) were used for excess biotin removal.^[ [61] ^] […] (SA) tray biosensors (Sartorius, 18‐5019) were used to load biotin‐ApoER2 proteins. Biosensors were pre‐wet for 10 min using 200 µL PBS containing 0.02% Tween 20 (v/v) in a 96‐well plate. To determine the binding affinity between sclerostin loop2 and ApoER2‐LA7, anti‐penta‐HIS (HIS1K) biosensors (Sartorius, 18‐5102) were used to load His‐sclerostin loop2, the sclerostin loop2‐loaded biosensors were immersed in the ApoER2‐LA7 with different concentrations. […] Raw data were analyzed using Data Analysis Software (ForteBio, v8.1). All Kd values were calculated after deducting the non‐specific binding between the biosensors and the samples.^[ [62], [63] ^]
Target sequence in this assay (Q99P68 107-132 limits assumed): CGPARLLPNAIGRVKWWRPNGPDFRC

Another assay relates to sost^−/−.ApoE^−/− mice. In words: Inflammatory responses in sost^−/−.ApoE^−/− mice with AngII infusion (absence of sclerostin). Format: in vivo, mouse. Particulars: 10 mg/kg, n = 6, Figure S12F. On the procedure: as §1, §2
Figure S12. […] (A) Serum stability of the modified ApoER2-Pep. […] All tests were two-sided. n = 6 per group. Data were expressed as mean ± standard deviation.

Assay [2] deals with sclerostin loop2‐ApoER2 interaction. Nature of the assay: ApoER2‐Pep blockade of sclerostin effects in ApoER2 overexpressing, LPS‐induced RAW 264.7 macrophages. It is filed as cell-based, mouse. Here is the method:
In ApoER2‐Pep‐mediated structure‐function studies in vitro, RAW 264.7 cells were divided into 4 groups (n = 3 per group), including (1) Control, (2) LPS, (3) Lrp8 + LPS + SOST, and (4) Lrp8 + LPS + SOST + ApoER2‐Pep. Cells in groups (3) and (4) were transfected with Lrp8 plasmids encoding ApoER2, while cells in groups (1) and (2) were kept untreated. 24 h later, cells in group (3) were treated with recombinant sclerostin (SOST, 1 µM), while cells in group (4) were treated with recombinant sclerostin (1 µM) and ApoER2‐Pep (2 µM) for 3 h. Then, cells in groups (2), (3), and (4) were treated with LPS (1 µg/mL) for 18 h. All groups of cells were collected for determining the mRNA expression levels of TNF‐α, MCP‐1, and IL‐10 by RT‐PCR. Cell mediums were collected for determining the protein expression/secretion levels of mouse TNF‐α, mouse MCP‐1, and mouse IL‐10 by ELISA.
Total RNA was extracted from cells following the protocols of Trizol reagent (Invitrogen, 15 596 026). Reverse‐transcription was performed to obtain cDNA using HiScript III RT SuperMix kit (Vazyme, R323), and RT‐PCR was accomplished using a HiScript III RT SuperMix kit (Vazyme, R323) in a QuantStudio 7 PRO System (Applied Biosystems). The relative gene expression levels were calculated using the 2^−ΔΔCt method with GAPDH as the reference gene.^[ [40] ^] The primers were as follows: mouse GAPDH (F: […], R: GGGGTCGTTGATGGCAAC), mouse NF‐κB (p65, F: […], R: […]), mouse TNF‐α (F: […], R: […]), mouse MCP‐1 (F: […], R: […]), mouse IL‐10 (F: […], R: […]), human GAPDH (F: […], R: […]), human TNF‐α (F: […], R: […]), human MCP‐1 (F: […], R: […]) and human IL‐10 (F: […], R: […]).

The subject of assay [3] is sclerostin‐knockout macrophages (RAW264.7). In words: Effect of ApoER2‐LA7 on LPS‐induced cytokine mRNA in sclerostin‐knockout macrophages (RAW264.7). It is filed as cell-based, mouse. Particulars: sclerostin‐knockout RAW264.7, after LPS induction, n = 3; Figure S7C.
The mark [4] stands for this setting: LPS‐induced macrophages in vitro.

On to “PCRENEFQCGDGTCVLAIKRCNQERDCPDGSDEAGCL [ApoER2‐Pep]”, for which, in the assay on SOST^ki.ApoE^−/− mice (ELISA), the “Serum level of IL‐10” value is “significantly lower”, the “Serum level of MCP‐1” value was “significantly higher” and the “Serum level of TNF‐α” value is reported as “significantly higher”. Also, in the assay on SOST^ki.ApoE^−/− mice, the AA incidence entry was “significantly higher”; the “Maximum ex vivo diameters of aortic arches and suprarenal aortas” value is recorded as “significantly higher”; the “Ratio of atherosclerotic plaque in aortic arches” value is listed as “significantly higher”. In addition, in assay [1], the “Binding of ApoER2 to sclerostin loop2 after pretreatment with the peptide” value is “blocked”. Besides, in the assay on sost^−/−.ApoE^−/− mice, the “Effect on inflammatory responses (serum TNF‐α, MCP‐1, IL‐10) in the absence of sclerostin” value is listed as “no effect”. For the same sequence, in assay [2] (ApoER2‐Pep 2 µM + sclerostin 1 µM for 3 h, LPS 1 µg/mL 18 h, ELISA, n = 3), the “Effects of exogenous sclerostin on protein expression/secretion of TNF‐α, MCP‐1 and IL‐10 after pretreatment with the peptide” value was “significantly attenuated”. Besides, the “Effects of exogenous sclerostin on mRNA expression of TNF‐α, MCP‐1 and IL‐10 after pretreatment with the peptide” value in assay [2] (ApoER2‐Pep 2 µM + sclerostin 1 µM for 3 h, LPS 1 µg/mL 18 h, RT‐PCR, n = 3) is “significantly attenuated”. In addition, in assay [2] (setting [4]), the “Reversal of the promotive effect of sclerostin on IL‐10 mRNA expression” value is recorded as “complete reversal”, the “Reversal of the suppressive effect of sclerostin on MCP‐1 mRNA expression” value is “complete reversal” and the “Reversal of the suppressive effect of sclerostin on TNF‐α mRNA expression” value was “partial reversal”. Further, in assay [3], the “mRNA expression levels of TNF‐α, MCP‐1 and IL‐10, with versus without the peptide” value is listed as “no significant differences”.
